Reference: US6087390A, “Derivatives of antifungal substance BE-31405 and process for producing the same” (Banyu Pharmaceutical Co., Ltd., priority 1997, dated 2000)
≈ marks a conversion by molar mass, not a printed value.

Each molecule was assayed on Candida albicans IFO1385 (assay: Antifungal activity: MIC against Candida albicans IFO1385 on yeast nitrogen base agar). Conditions: 48 h; 2 days of incubation at 37° C., yeast nitrogen base agar with 1% glucose and 0.25% dipotassium hydrogen phosphate; single use; read-out: MIC.
Assay type: cell-based
Procedure: ^b MICs were determined against Candida albicans IFO1385 after 2 days
of incubation of the test strain at 37° C. on yeastnitrogen base
agar (containing 1% glucose and 0.25% dipotassium hydrogen phosphate,

MIC [µg/mL] | Compound
6.25 (≈ 10.9 µM) | CCCCC(=O)OC1C2OC3(OCC45CC6C(C)CCC6C6(C=O)CC4C=C(C(C)C)C65C(=O)O)OC2OC1C3O (stereo not drawn) [Compound 10, 8a-[[[6-(n-valeryloxy)tetrahydro-7-hydroxy-2,5-methanofuro[2,3-d]-1,3-dioxol-2-yl]oxy]methyl]-4-formyl-4,4a,5,6,7,7a,8,8a-octahydro-7-methyl-3-(1-methylethyl)-1,4-methano-s-indacene-3a(1H)-carboxylic acid]
3.13 (≈ 5.32 µM) | CCCCCC(=O)OC1C2OC3(OCC45CC6C(C)CCC6C6(C=O)CC4C=C(C(C)C)C65C(=O)O)OC2OC1C3O (stereo not drawn) [Compound 13, 8a-[[[6-(n-hexanoyloxy)tetrahydro-7-hydroxy-2,5-methanofuro[2,3-d]-1,3-dioxol-2-yl]oxy]methyl]-4-formyl-4,4a,5,6,7,7a,8,8a-octahydro-7-methyl-3-(1-methylethyl)-1,4-methano-s-indacene-3a(1H)-carboxylic acid]
1.56 (≈ 2.59 µM) | CCCCCCC(=O)OC1C2OC3(OCC45CC6C(C)CCC6C6(C=O)CC4C=C(C(C)C)C65C(=O)O)OC2OC1C3O (stereo not drawn) [Compound 14, 8a-[[[6-(n-heptanoyloxy)tetrahydro-7-hydroxy-2,5-methanofuro[2,3-d]-1,3-dioxol-2-yl]oxy]methyl]-4-formyl-4,4a,5,6,7,7a,8,8a-octahydro-7-methyl-3-(1-methylethyl)-1,4-methano-s-indacene-3a(1H)-carboxylic acid]
1.56 (≈ 2.78 µM) | CCCCCOC1C2OC3(OCC45CC6C(C)CCC6C6(C=O)CC4C=C(C(C)C)C65C(=O)O)OC2OC1C3O (stereo not drawn) [Compound 41, 8a-[[[6-(pentyloxy)tetrahydro-7-hydroxy-2,5-methanofuro[2,3-d]-1,3-dioxol-2-yl]oxy]methyl]-4-formyl-4,4a,5,6,7,7a,8,8a-octahydro-7-methyl-3-(1-methylethyl)-1,4-methano-s-indacene-3a(1H)-carboxylic acid]
3.13 (≈ 5.58 µM) | CC(C)CCOC1C2OC3(OCC45CC6C(C)CCC6C6(C=O)CC4C=C(C(C)C)C65C(=O)O)OC2OC1C3O (stereo not drawn) [Compound 44, 8a-[[[6-(isopentyloxy)tetrahydro-7-hydroxy-2,5-methanofuro[2,3-d]-1,3-dioxol-2-yl]oxy]methyl]-4-formyl-4,4a,5,6,7,7a,8,8a-octahydro-7-methyl-3-(1-methylethyl)-1,4-methano-s-indacene-3a(1H)-carboxylic acid]
1.56 (≈ 2.71 µM) | CCCCCCOC1C2OC3(OCC45CC6C(C)CCC6C6(C=O)CC4C=C(C(C)C)C65C(=O)O)OC2OC1C3O (stereo not drawn) [Compound 47, 8a-[[[6-(hexyloxy)tetrahydro-7-hydroxy-2,5-methanofuro[2,3-d]-1,3-dioxol-2-yl]oxy]methyl]-4-formyl-4,4a,5,6,7,7a,8,8a-octahydro-7-methyl-3-(1-methylethyl)-1,4-methano-s-indacene-3a(1H)-carboxylic acid]
3.13 (≈ 4.96 µM) | CCCCCCCCCCOC1C2OC3(OCC45CC6C(C)CCC6C6(C=O)CC4C=C(C(C)C)C65C(=O)O)OC2OC1C3O (stereo not drawn) [Compound 50, 8a-[[[6-(decyloxy)tetrahydro-7-hydroxy-2,5-methanofuro[2,3-d]-1,3-dioxol-2-yl]oxy]methyl]-4-formyl-4,4a,5,6,7,7a,8,8a-octahydro-7-methyl-3-(1-methylethyl)-1,4-methano-s-indacene-3a(1H)-carboxylic acid]

Compound | MIC [µg/mL]
CCCCOC1C2OC3(OCC45CC6C(C)CCC6C6(C=O)CC4C=C(C(C)C)C65C(=O)O)OC2OC1C3O (stereo not drawn) [Compound 38, 8a-[[[6-(butoxy)tetrahydro-7-hydroxy-2,5-methanofuro[2,3-d]-1,3-dioxol-2-yl]oxy]methyl]-4-formyl-4,4a,5,6,7,7a,8,8a-octahydro-7-methyl-3-(1-methylethyl)-1,4-methano-s-indacene-3a(1H)-carboxylic acid] | 3.13 (≈ 5.73 µM)

Same assay, conditions: 2 days of incubation at 37° C., yeast nitrogen base agar with 1% glucose and 0.25% dipotassium hydrogen phosphate; single use

Compound | MIC [µg/mL]
CC(=O)O[C@@H]1[C@@H]2O[C@@]3(OC[C@@]45C[C@@H]6[C@H](C)CC[C@H]6[C@@]6(C=O)C[C@@H]4C=C(C(C)C)[C@@]56C(=O)O)O[C@@H]2O[C@@H]1[C@@H]3O [BE-31405] | 50 (≈ 93.9 µM)
COC1C2OC3(OCC45CC6C(C)CCC6C6(C=O)CC4C=C(C(C)C)C65C(=O)O)OC2OC1C3O (stereo not drawn) [SCH57404 (xylarin), reference compound] | 100 (≈ 198 µM)

These molecules were tested on a certain kind of fungus (assay: not given). Conditions: in vitro, acidic conditions.

Compound | growth inhibitory (antifungal) activity under acidic conditions
CC(=O)O[C@@H]1[C@@H]2O[C@@]3(OC[C@@]45C[C@@H]6[C@H](C)CC[C@H]6[C@@]6(C=O)C[C@@H]4C=C(C(C)C)[C@@]56C(=O)O)O[C@@H]2O[C@@H]1[C@@H]3O [BE-31405] | shows growth inhibitory activity against a certain kind of fungus in vitro especially under acidic conditions

Same assay, conditions: neutral conditions

Compound | antifungal activity under neutral conditions
CC(=O)O[C@@H]1[C@@H]2O[C@@]3(OC[C@@]45C[C@@H]6[C@H](C)CC[C@H]6[C@@]6(C=O)C[C@@H]4C=C(C(C)C)[C@@]56C(=O)O)O[C@@H]2O[C@@H]1[C@@H]3O [BE-31405] | the activity remarkably lowers under neutral conditions
